One compound from patent publication US7713960B2, “Inhibition of the Raf/Mek/P-Erk pathway for treating cancer” (University of South Florida, priority 2005, dated 2010) can be followed below.

Assay type in all cases: cell-based, human
One series relates to A-549 cells. Kind of series: Apoptosis assay (Cell Death Detection ELISA), A-549. The settings on record: 48 hours, two single values, dihydrochloride. As for the experimental part:
Apoptosis Assay—Apoptosis was analyzed using the Cell Death Detection ELISA (Roche, Indianapolis, Ind.) measuring cytoplasmic histone-associated mono- and oligonucleosome DNA fragments. Procedures were carried out according to the manufacturers protocol. Briefly, 1×10^5 cells were plated in 60 mm dishes and treated with various doses of ARA-211 or vehicle for 48 hours. Cells were lysed with the provided lysis buffer and lysate was incubated on the ELISA plate for 1 hour to capture the histone associated DNA indicative of apoptotic cells. Anti-DNA peroxidase conjugated antibody was added to detect the cleaved DNA and the microplate was washed and developed with ABTS substrate which was quantitated by microplate reader at 405 nm.

The next series has as its system P-Erk 1/2. Kind of series: P-Erk 1/2 levels (Western blotting), ACHN. As for the experimental part:
Western Blotting—Treated cell samples were lysed in 30 mM HEPES, 10 mM NaCl, 5 mM MgCl2, 25 mM NaF, 1 mM EGTA, 1% Triton-X-100, 10% Glycerol, 2 mM Sodium orthovanidate, 10 μg/mL aprotinin, 10 μg/mL soybean trypsin inhibitor, 25 μg/mL leupeptin, 2 mM phenylmethylsulfonylfluoride (PMSF), 6.4 mg/mL p-nitrophenylphosphate for 30 minutes at 4° C., and proteins run on SDS-PAGE gels then transferred to nitrocellulose membranes. Membranes were blocked in either 5% milk in PBS, pH 7.4, containing 0.1% Tween-20 (PBS-T) or 1% BSA in TBS, pH 7.5, containing 0.1% Tween-20 (TBS-T). Phospho-STAT3 and phospho-AKT antibodies were diluted in 1% BSA in TBS-T while phospho-c-Raf, phospho-Mek, and phospho-p44/p42 MAPK antibodies (Cell Signaling) were diluted in 5% milk in PBS-T for either 1 hour at room temperature or overnight at 4° C. HRP-conjugated secondary antibodies (Jackson ImmunoResearch, West Grove, Pa.) were diluted in 5% milk in PBS-T or TBS-T at a 1:1000 dilution for one hour at room temperature. Western blots results were visualized using enhanced chemiluminescence. Stripping of the membranes for reblotting was done using stripping buffer (62.5 mM Tris pH 7.6, 2% SDS, 0.7% 2-mercaptoethanol) at 50° C. for 30 minutes.
On the technique in general: Immunoblotting shows a protein as a band on a membrane.

The subject of series [1] is ACHN cells. Kind of series: Total cellular cAMP measurement, ACHN. As for the experimental part: Total cellular cAMP measurement—The measurement of total cellular cAMP was done using a cAMP Biotrak ™ Enzymeimmunoassay (EIA) system (Amersham Biosciences, Piscataway, N.J.) according to the manufacturer's protocol. Briefly, 2000 cells were plated into each well of a 96 well plate. The next day cells were treated with increasing concentrations of ARA-211 or with vehicle for one hour. Alternatively, MDA-MB-231 cells were pre-treated with antagonists to the α1 (Prazosin, Sigma), α2 (Yohimbine, Sigma), β1 (Metoprolol, Sigma), and β2 (ICI 118.551, Sigma) adrenergic receptors at 100 nM for 15 minutes followed by treatment with 10 μM ARA-211 for 45 minutes. Cells were then lysed directly in the wells using the supplied lysis buffer. The lysate was transferred to a 96-well cAMP ELISA plate, and results were quantified using a Wallac Victor 2 plate reader.

For series [2], the system named is ACHN cells. Put plainly: Anchorage-independent growth (soft agar assay), ACHN. As for the experimental part: Soft Agar Assay—Anchorage independent growth assays were performed as previously described (Lerner et al., 1997). Briefly, agar was diluted to 0.3% in propagation media containing 20,000 cells and either vehicle or ARA-211 and 1 ml of cell/agar mixture plated on top of 2 ml of a 0.6% layer of agar in medium alone. Cells were grown for three to four weeks at 37° C., 10% Co2 and were fed weekly with 100 μl per well of media/treatment. Quantification of colonies was done using a GS-700 scanning densitometer.

The subject of another series is MDA-MB-231 cells. Kind of series: Anchorage-dependent growth (MTT assay), MDA-MB-231. As for the experimental part: MTT Assay—2000 cells per well were plated into 96 well tissue culture plates, and the cells were allowed to attach overnight at 37° C. with 10% CO2. Cells were then treated with increasing concentrations of ARA-211, or vehicle (DMSO) and incubated for four days. At that time treatment medium was removed and replaced with 100 μl of lmg/ml MTT (Sigma-Aldrich, St. Louis, Mo.) in media and incubated at 37° C., 10% CO2 for 3 hours. After 3 hours the MTT media was removed and replaced with 100 μl/well of DMSO, rocked at room temperature for 5 minutes, then absorbance read at 540 nm on a micro-plate reader.
For orientation: Tetrazolium dyes change colour on reduction, which living cells bring about.

Another series has as its system Mek-1. Put plainly: In vivo kinase assay, intact MDA-MB-231 cells treated, Mek-1. The settings on record: 10 μM. As for the experimental part:
In Vitro Kinase Assays—MDA-MB-231 cells (2×10^6) were lysed for 30 minutes at 4° C. in RIPA-150 buffer (10 mM Tris pH 7.5, 150 mM NaCl, 10% glycerol, 5 mM EDTA, 1% Triton X-100, 0.1% SDS, 100 μM sodium orthovanadate, 1 μM aprotinin, 10 μM leupeptin, 10 μM antipain). Cell debris was pelleted at 13000 rpm for 15 minutes at 4° C. and the lysate was rocked overnight with 10 μg of either c-Raf or MEK antibodies (Santa Cruz Biotechnologies, Santa Cruz, Calif.). 25 μl of protein A/G PLUS agarose (Santa Cruz Biotechnology) was then added and rocked for 4 hours at 4° C. Samples were spun at 2000 rpm for 5 minutes to collect the agarose beads, which were then washed four times with lysis buffer. On the final wash each pellet was divided into 5. […]

SMILES strings stand for the structures. Where “and” joins values, the source holds several entries; their conditions need not be identical. Identical values can stand only once. Counter-ions that a name gives are not always drawn.

For `CC(C)(C)NCC(O)c1ccc(O)c(CO)n1` (stereo not drawn) [ARA-211, 2-hydroxymethyl-3-hydroxy-6-(1-hydroxy-2-tert-butylaminoethyl) pyridine, dihydrochloride], in the series on A-549 cells, the “Apoptosis (% Induction)” value was 3.1% and 2.2%. Moreover, the “P-Erk ½ (% Inhibition)” value in the series with P-Erk 1/2 is recorded as 91%. The “cAMP (Fold Induction)” value in the series on ACHN cells [1] is reported as 16.5 ± 3.2 Fold. Besides, in the series with ACHN cells [2], the “Anchorage Independent Growth (% Inhibition)” value came out at 97.9 ± 1.2%. In the series with MDA-MB-231 cells, the “Anchorage Dependent Growth (% Inhibition)” value was 60.6 ± 6.5%. Besides, in the series on Mek-1, the “Mek-1 kinase activity, intact cells first treated” value is reported as “blocked”.
